Several values for one entry are separate records, joined by “and”; a condition that tells them apart may be missing. Equal values may be shown once.
system: Mtb ΔkatG mutant strain; type: cell-based, Mycobacterium tuberculosis

Compound	katG MIC50	katG MIC99
N′-((7,8-dicarba-nido-undecaboranyl)methylidene)isonicotinohydrazide [Compound 16]	500 µM	>660 µM
NNC(=O)c1ccncc1 [4 (INH), pyridine-4-carbohydrazide, reference compound]	1100 µM	1500 µM
N′-((1,2-dicarba-closo-dodecaboran-1-yl)ethylidene)isonicotinohydrazide [Compound 20]	160 µM	240 µM
N′-((1,7-dicarba-closo-dodecaboran-1-yl)propanoyl)isonicotinohydrazide [Compound 9]	150 µM	300 µM
N′-((1,7-dicarba-closo-dodecaboran-1-yl)ethyl)isonicotinohydrazide [Compound 24]	81.30 µM	160 µM
N′-((1,7-dicarba-closo-dodecaboran-1-yl)ethylidene)isonicotinohydrazide [Compound 21]	160 µM	240 µM
N′-((1,2-dicarba-closo-dodecaboran-1-yl)ethyl)isonicotinohydrazide [Compound 23]	97.60 µM	240 µM
N′-((1,12-dicarba-closo-dodecaboran-1-yl)ethyl)isonicotinohydrazide [Compound 25]	3.25 µM	24.4 µM and 24.40 µM
N′-((1,7-dicarba-closo-dodecaboran-1-yl)methylidene)isonicotinohydrazide [Compound 14]	260 µM	340 µM
N′-((1,2-dicarba-closo-dodecaboran-1-yl)propanoyl)isonicotinohydrazide [Compound 8]	150 µM	300 µM
N′-((1,12-dicarba-closo-dodecaboran-1-yl)propanoyl)isonicotinohydrazide [Compound 10]	150 µM	300 µM
N′-((1,12-dicarba-closo-dodecaboran-1-yl)methylidene)isonicotinohydrazide [Compound 15]	510 µM	680 µM
N′-((1,12-dicarba-closo-dodecaboran-1-yl)ethylidene)isonicotinohydrazide [Compound 22]	160 µM	330 µM
